Results: ChEMBL document CHEMBL5579899, “Discovery and In Vivo Exploration of 1,3,4-Oxadiazole and α-Fluoroacrylate Containing IL-17 Inhibitors” (J Med Chem, 2024)
≈ marks a conversion by molar mass, not a printed value.

Legend:
[1] = Apparent permeability coefficient of the compound across apical to basolateral side in dog MDCK cells by high-throughput analysis; type: ADME, cell-based, Canis lupus familiaris
[2] = Metabolic stability in rat liver microsomes assessed as intrinsic clearance; type: ADME, Microsome; settings: read-out: CLH
[3] = Inhibition of biotinylated human IL-17A/AF647-labeled human IL-17RA protein-protein interaction preincubated for 30 mins with compound followed by addition of AF647-labeled human IL-17RA incubated for 90 min by TR-FRET assay
[4] = Metabolic stability in human liver microsomes assessed as intrinsic clearance; type: ADME, Microsome; settings: read-out: CLH
[5] = Lipophilicity, logD of compound at pH 7.4; type: physicochemical; settings: buffer
[6] = Inhibition of IL-6 production in IL-17/TNF-alpha stimulated human NHDF cells incubated for 24 hrs by ELISA; type: functional, cell-based; settings: 24 h
[7] = Equilibrium solubility of compound […] at pH 6.8 by high-throughput analysis; type: physicochemical
[8] = AUC in Sprague-Dawley rat at 3 mg/kg,po measured upto 24 hrs by LC-MS/MS analysis; type: ADME, organism-based; settings: in vivo; for AUC at 24 h: Sprague-Dawley
[9] = Oral bioavailability in Sprague-Dawley rat at 3 mg/kg measured upto 24 hrs by LC-MS/MS analysis; type: ADME, organism-based; settings: in vivo; for bioavailability: Sprague-Dawley
[10] = Plasma clearance in Sprague-Dawley rat at 1 mg/kg,iv measured upto 24 hrs by LC-MS/MS analysis; type: ADME, organism-based

SMILES	Papp A→B [1] [×10⁻⁶ cm/s]	microsomal CLint [2] [µL/min/mg]	IC50 [3] [nM]	microsomal CLint [4] [µL/min/mg]	logD [5]	IC50 [6] [nM]	solubility [7] [µM]	AUC ([8]; po, 3 mg/kg, 24 h) [µM·h]	F ([9]; po, 3 mg/kg, 24 h) [%]	AUC at 24 h [8] [µM·h]	clearance [10] [mL/min/kg]	bioavailability [9] [%]
COC[C@H](c1cnn2cc([C@@H](Nc3ncc(C4CC4)o3)C3CCC(F)(F)CC3)nc2c1)N1C[C@@H](C(F)(F)F)NC1=O	17	> 1000	80	261	> 4.7	64	270 (≈ 158 µg/mL)	–	–	–	–	–
COC[C@H](c1cnn2cc([C@@H](Nc3nnc(C)n3C)C3CCC(F)(F)CC3)nc2c1)N1C[C@@H](C(F)(F)F)NC1=O	0.4	13	1820	18	1.5	2690	> 750	–	–	–	–	–
COC[C@H](c1cnn2cc([C@@H](NC(=O)/C(F)=C\C3(F)CC3)C3CCC(F)(F)CC3)nc2c1)N1C[C@@H](C(F)(F)F)NC1=O	12	64	16	164	2.8	4	560 (≈ 340 µg/mL)	0.013	23	–	–	–
COC[C@H](c1cnn2cc([C@@H](Nc3nnc(C)s3)C3CCC(F)(F)CC3)nc2c1)N1C[C@@H](C(F)(F)F)NC1=O	1.3	75	61	50	2.5	45	610 (≈ 350 µg/mL)	–	–	–	–	–
COC[C@H](c1cnn2cc([C@@H](Nc3nnc(C4CC4)o3)C3CCC(F)(F)CC3)nc2c1)N1C[C@@H](C(F)(F)F)NC1=O	1.7	17	53	< 25	2.7	15	> 750	–	–	0.026	86	2.5
COC[C@H](c1cnn2cc([C@@H](Nc3nnc(C)o3)C3CCC(F)(F)CC3)nc2c1)N1C[C@@H](C(F)(F)F)NC1=O	0.5	28	85	23	1.9	49	> 750	–	–	–	–	–
COC[C@H](c1cnn2cc([C@@H](NC(=O)/C(F)=C3\CCOC3)C3CCC(F)(F)CC3)nc2c1)N1C[C@@H](C(F)(F)F)NC1=O	7.4	321	102	50	2.6	34	> 750	–	–	0.08	42	4
COC[C@H](c1cnn2cc([C@@H](Nc3nnc(C(F)(F)F)o3)C3CCC(F)(F)CC3)nc2c1)N1C[C@@H](C(F)(F)F)NC1=O	8	< 25	25	< 10	3.4	15	270 (≈ 165 µg/mL)	–	–	–	–	–
COC[C@H](c1cnn2cc([C@@H](Nc3cc(OC)ncn3)C3CCC(F)(F)CC3)nc2c1)N1C[C@@H](C(F)(F)F)NC1=O	11	77	735	31	3.2	493	700 (≈ 409 µg/mL)	–	–	–	–	–
COC[C@H](c1cnn2cc([C@@H](Nc3nc(C(C)(F)F)no3)C3CCC(F)(F)CC3)nc2c1)N1C[C@@H](C(F)(F)F)NC1=O	9.7	18	116	18	3.5	107	200 (≈ 122 µg/mL)	–	–	–	–	–
